Publication PMC3662962 (Biochemical and biophysical research communications, 2010)

Molecular target: RsbU phosphatase domain (Mycobacterium tuberculosis, UniProt P9WLZ7)
Assay: biochemical

Sequence of RsbU phosphatase domain (P9WLZ7 190-397): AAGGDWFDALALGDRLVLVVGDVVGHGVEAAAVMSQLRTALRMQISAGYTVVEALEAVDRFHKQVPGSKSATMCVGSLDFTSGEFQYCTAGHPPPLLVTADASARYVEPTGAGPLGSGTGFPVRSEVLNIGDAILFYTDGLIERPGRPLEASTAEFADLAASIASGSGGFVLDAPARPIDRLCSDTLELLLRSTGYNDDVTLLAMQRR

For `O=P(O)(O)O` [inorganic phosphate], the Ki was 320 nM.
